The values below are quoted from earlier work in patent US20060198888A1, “Tolperisone-containing pharmaceutical preparation with controllable active-substance release for oral administration” (Sanochemia Pharmazeutika AG, priority 2004, published 2006).

The conditions of data set [1]: rat.
For data set [2] the following is noted: JP-A-53-40779.

Read-outs that look alike come from different tables or passages of the source.

Regarding `Cc1ccc(C(=O)C(C)CN2CCCCC2)cc1` (stereo not drawn) [R(−) tolperisone], the “fraction converted by in-vivo inversion into S(+) tolperisone” value in data set [1] is given as “up to 20%”. In data set [2] (listed as 1-tolperisone), the pharmacological effect entry is recorded as “vaso- or bronchodilatory effect”.
With `Cc1ccc(C(=O)C(C)CN2CCCCC2)cc1` (stereo not drawn) [S(+) tolperisone], the “extent of in-vivo inversion into R(−) tolperisone” value in data set [1] is reported as “up to 20%”. Moreover, the pharmacological effect entry in data set [2] (listed as d-tolperisone) is “muscle-relaxing effect”.
